Source: US11479551B2, “MTA-cooperative PRMT5 inhibitors” (Mirati Therapeutics, Inc., priority 2019, dated 2022)
Read-outs that look alike come from different tables or passages of the source.

Target: PRMT5/MEP50 complex (Homo sapiens (Human), UniProt O14744)
Assay: PRMT5:MEP50 FlashPlate Assay (histone H4 peptide substrate, plus and minus MTA)
Format: biochemical
Description: The PRMT5 inhibitory activity of compounds of the present invention was determined using either a PRMT5:MEP50 FlashPlate Assay (Reaction Biology Corporation) or a PRMT5:MEP50 HotSpot Assay (Reaction Biology Corporation).
1. PRMT5:MEP50 FlashPlate Assay

[1] = IC50 + 2 μM MTA (nM), in the presence of 2 μM MTA
[2] = in the absence of MTA, read-out: IC50

Chain of PRMT5/MEP50 complex (O14744 2-637): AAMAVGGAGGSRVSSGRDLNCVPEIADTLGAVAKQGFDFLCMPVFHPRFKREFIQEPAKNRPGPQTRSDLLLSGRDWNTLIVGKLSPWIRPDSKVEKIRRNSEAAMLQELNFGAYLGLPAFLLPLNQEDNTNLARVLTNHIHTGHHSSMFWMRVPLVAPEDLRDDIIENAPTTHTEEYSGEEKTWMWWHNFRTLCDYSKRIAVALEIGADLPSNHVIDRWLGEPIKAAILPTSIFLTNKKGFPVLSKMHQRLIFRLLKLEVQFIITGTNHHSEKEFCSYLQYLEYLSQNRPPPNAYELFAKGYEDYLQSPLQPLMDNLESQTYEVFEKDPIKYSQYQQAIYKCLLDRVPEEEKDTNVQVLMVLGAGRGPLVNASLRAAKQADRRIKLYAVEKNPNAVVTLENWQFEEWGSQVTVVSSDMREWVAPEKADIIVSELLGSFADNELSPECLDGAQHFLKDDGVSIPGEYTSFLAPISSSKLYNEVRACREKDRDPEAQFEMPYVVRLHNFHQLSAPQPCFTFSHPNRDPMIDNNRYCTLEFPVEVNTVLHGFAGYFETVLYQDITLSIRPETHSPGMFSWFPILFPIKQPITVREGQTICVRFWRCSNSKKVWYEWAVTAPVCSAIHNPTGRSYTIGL
Chain of PRMT5/MEP50 complex (Q9BQA1 2-342 partner): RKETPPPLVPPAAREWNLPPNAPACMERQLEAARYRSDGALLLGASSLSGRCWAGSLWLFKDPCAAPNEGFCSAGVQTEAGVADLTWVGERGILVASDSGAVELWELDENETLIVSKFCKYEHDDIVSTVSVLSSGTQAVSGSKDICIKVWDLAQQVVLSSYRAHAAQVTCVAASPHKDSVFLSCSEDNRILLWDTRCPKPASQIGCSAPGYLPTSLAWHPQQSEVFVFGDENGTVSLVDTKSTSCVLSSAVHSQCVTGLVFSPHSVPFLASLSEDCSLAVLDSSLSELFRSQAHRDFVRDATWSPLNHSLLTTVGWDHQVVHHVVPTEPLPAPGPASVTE

SMILES	IC50 [1] [nM]	IC50 [2] [nM]
Cc1cccc(Sc2cncc(-c3ccc4c(=O)[nH]nc(CN)c4c3)c2)c1 [Example 4-61, 4-(aminomethyl)-6-(5-(m-tolylthio)pyridin-3-yl)phthalazin-1(2H)-one]	3	149
NCc1n[nH]c(=O)c2ccc(-c3cncc(Oc4cccnc4)c3)cc12 [Example 4-62, 4-(aminomethyl)-6-(5-(pyridin-3-yloxy)pyridin-3-yl)phthalazin-1(2H)-one]	120	2230
NCc1n[nH]c(=O)c2ccc(-c3cncc(Oc4ccccn4)c3)cc12 [Example 4-63, 4-(aminomethyl)-6-(5-(pyridin-2-yloxy)pyridin-3-yl)phthalazin-1(2H)-one]	58	1380
NCc1n[nH]c(=O)c2ccc(-c3cncc(Oc4ncccn4)c3)cc12 [Example 4-64, 4-(aminomethyl)-6-(5-(pyrimidin-2-yloxy)pyridin-3-yl)phthalazin-1(2H)-one]	230	4110
NCc1n[nH]c(=O)c2ccc(-c3cncc(Oc4cccc(F)c4)c3)cc12 [Example 4-65, 4-(aminomethyl)-6-(5-(3-fluorophenoxy)pyridin-3-yl)phthalazin-1(2H)-one]	16	517
COc1cccc(Oc2cncc(-c3ccc4c(=O)[nH]nc(CN)c4c3)c2)c1 [Example 4-68, 4-(aminomethyl)-6-(5-(3-methoxyphenoxy)pyridin-3-yl)phthalazin-1(2H)-one]	10	243
N#Cc1cccc(Oc2cncc(-c3ccc4c(=O)[nH]nc(CN)c4c3)c2)c1 [Example 4-69, 3-((5-(4-(aminomethyl)-1-oxo-1,2-dihydrophthalazin-6-yl)pyridin-3-yl)oxy)benzonitrile]	10	624
NCc1n[nH]c(=O)c2ccc(-c3cncc(Oc4ccccc4F)c3)cc12 [Example 4-70, 4-(aminomethyl)-6-(5-(2-fluorophenoxy)pyridin-3-yl)phthalazin-1(2H)-one]	10	221
Cc1ccccc1Oc1cncc(-c2ccc3c(=O)[nH]nc(CN)c3c2)c1 [Example 4-72, 4-(aminomethyl)-6-(5-(o-tolyloxy)pyridin-3-yl)phthalazin-1(2H)-one]	3	73
NCc1n[nH]c(=O)c2ccc(-c3cnn4c3CN(Cc3ccccc3)CC4)cc12 [Example 4-79, 4-(aminomethyl)-6-(5-benzyl-4,5,6,7-tetrahydropyrazolo[1,5-a]pyrazin-3-yl)phthalazin-1(2H)-one]	27	930

The next compounds have a lower IC50 [1] than those just listed; values first:

IC50 [1] [nM]	IC50 [2] [nM]	SMILES
1.1	76	Cc1ccc(Oc2cncc(-c3ccc4c(=O)[nH]nc(CN)c4c3)c2)cc1Cl [Example 4-74, 4-(aminomethyl)-6-(5-(3-chloro-4-methylphenoxy)pyridin-3-yl)phthalazin-1(2H)-one]
0.7	33	Cc1c(Cl)cccc1Oc1cncc(-c2ccc3c(=O)[nH]nc(CN)c3c2)c1 [Example 4-75, 4-(aminomethyl)-6-(5-(3-chloro-2-methylphenoxy)pyridin-3-yl)phthalazin-1(2H)-one]
1.3	31	Cc1ccc(Oc2cncc(-c3ccc4c(=O)[nH]nc(CN)c4c3)c2)c(C)c1Cl [Example 4-76, 4-(aminomethyl)-6-(5-(3-chloro-2,4-dimethylphenoxy)pyridin-3-yl)phthalazin-1(2H)-one]
1.1	96	COc1ccc(Oc2cncc(-c3ccc4c(=O)[nH]nc(CN)c4c3)c2)cc1 [Example 4-77, 4-(aminomethyl)-6-(5-(4-methoxyphenoxy)pyridin-3-yl)phthalazin-1(2H)-one]
0.5	66	COc1ccccc1Oc1cncc(-c2ccc3c(=O)[nH]nc(CN)c3c2)c1 [Example 4-78, 4-(aminomethyl)-6-(5-(2-methoxyphenoxy)pyridin-3-yl)phthalazin-1(2H)-one]
